Source: patent US10466233B2, “Genetically encoded probe for quantification of lactate and methods for quantifying metabolic rates and lactate transport” (CENTRO DE ESTUDIOS CIENTIFICOS DE VALDIVIA, priority 2012, dated 2019)

What was measured:
[1] = target: T1, mitochondrial pyruvate transporter (PT) (Homo sapiens, UniProt O95563+Q9Y5U8); experiment: Intracellular lactate in HEK293 cells after inhibition of the mitochondrial pyruvate transporter; assay type: cell-based; details: concentration that does not affect MCT function
T1 construct: endogenous in cells; host or cells: HEK293 cells (ATCC) expressing the lactate sensor
T1 sequence (Q9Y5U8 1-109): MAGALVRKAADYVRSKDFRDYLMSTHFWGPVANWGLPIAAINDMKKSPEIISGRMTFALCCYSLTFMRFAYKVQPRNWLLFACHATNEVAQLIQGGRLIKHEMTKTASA
T1 sequence (O95563 1-127): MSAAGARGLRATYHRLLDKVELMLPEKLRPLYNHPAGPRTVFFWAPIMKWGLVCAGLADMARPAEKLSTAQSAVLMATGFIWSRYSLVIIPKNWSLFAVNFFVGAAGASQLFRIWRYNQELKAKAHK
Text: (§1) Animals and Cell Cultures.
(§2) Fluorescence Measurements.
Because the reaction catalyzed by LDH is relatively fast, the cytosolic pools of lactate and pyruvate are tightly linked, and variations in pyruvate are faithfully mimicked by lactate. Accordingly, perturbation of the steady-state by addition of a blocker of the mitochondrial pyruvate transporter (PT) will cause intracellular lactate accumulation at a rate equal to the rate of pyruvate consumption by mitochondria.
To further validate methods 2 and 3, the blockers were applied sequentially and a mathematical model based on the kinetic model described in FIG. 14 was fitted to the data. The responses of intracellular lactate to transient inhibitions of the PT with 4-CIN (200 μM) and the MCTs with phloretin (50 μM) were measured in the same HEK293 cell in the presence of 25 mM glucose and no extracellular lactate. The straight lines represent the slopes of the lactate increases fitted by linear regression during the first minute (4-CIN) or during the whole exposure (phloretin). The red line represents the best fit of the kinetic model to the data, as described in Experimental Procedures, assuming full inhibition of the transporters. […] PT and lactate release rates respectively estimated from the initial slopes of lactate increase after transporter inhibition were over 90% of those estimated by modeling. […]

MCT [2] = experiment: Intracellular lactate in HEK293 cells after MCT blockage; assay type: cell-based
Description: as §1, §2
The diagram in FIG. 14 illustrates how the intracellular concentration of lactate is determined by the dynamic balance between pyruvate production by glycolysis, pyruvate consumption by mitochondria and lactate exchange through MCTs. In cells that are exporting lactate, perturbation of the steady state by addition of a blocker of the MCT is expected to cause lactate accumulation. In cells that are net lactate importers, an MCT-blocker is expected to cause depletion in intracellular lactate. In both cases, the rate of change will be equal to the rate of lactate production or consumption. […] Phloretin is also known to inhibit GLUT glucose transporters, however this should not compromise the analysis of astrocytes, neurons, or the cell lines so far characterized, which maintain resting intracellular glucose at levels well above the Km of hexokinase (Bittner et al., 2010; Takanaga et al., 2008; Fehr et al., 2003). […]
To further validate methods 2 and 3, the blockers were applied sequentially and a mathematical model based on the kinetic model described in FIG. 14 was fitted to the data. The responses of intracellular lactate to transient inhibitions of the PT with 4-CIN (200 μM) and the MCTs with phloretin (50 μM) were measured in the same HEK293 cell in the presence of 25 mM glucose and no extracellular lactate. […]

[3] = target: T2, lactate sensor Variant 7: mTFP - full length L1dR from E. coli, no linkers - Venus, SEQ ID NO 7 (Escherichia coli, UniProt P0ACL7); experiment: Fluorescence ratio (FRET) dose-response of purified lactate nanosensor to lactate; assay type: binding; details: millimolar levels
T2 construct: His tag (inferred from the nickel-resin purification); made in house; host or cells: E. coli BL21 (DE3)
Description: Also surprising was the observation that the DNA-binding domain is important for the FRET change, and that the sensors with no linkers are more responsive (FIG. 4). […] It contains the full length L1dR from E. coli and no linkers. […] The affinity constant of L1dR for L-lactate is not known. […] This unique property of L1dR confers the lactate sensor the desirable ability of reporting across four orders of magnitude (from 1 μM to 10 mM), instead of the two orders afforded by one-site sensors.
(§3) Protein Purification. Plasmid constructs were transformed into E. coli BL21 (DE3). A single colony was inoculated in 100 ml of LB medium with […] ampicillin (without IPTG) and shaken in the dark for 2-3 days. Cells were collected by centrifugation at 5000 rpm (4° C.) for 10 min and disrupted by sonication (Hielscher Ultrasound Technology) in 5 mL of Tris-HCl buffer pH 8.0. A cell-free extract was obtained by centrifugation at 10,000 rpm (4° C.) for 1 hour and filtering of the supernatant (0.45 μm). Proteins were purified using a Nickel resin (His Bin® from Novagen) as recommended by the manufacturer. Eluted proteins were quantified using the Biuret method and stored at −20° C. in 20% glycerol.
as §2

[4] = tested on: oxidative phosphorylation; details: astrocytes, 5 mM
Description: (§5) Animals and Cell Cultures. Animals used were mixed F1 male mice (C57BL/6J×CBA/J), kept in an animal room under Specific Pathogen Free (SPF) conditions at a room temperature of 20±2° C., in a 12/12 h light/dark cycle with free access to food and water. […] Mixed cortical cultures of neuronal and glial cells (1-3 day-old neonates) were prepared as described (Loaiza et al., 2003). […] Cultures were transfected at 60% confluence using Lipofectamine 2000 (Gibco) or alternatively, exposed to 5×10^6 PFU of Ad lactate sensor of the present invention (Vector Biolab), and studied after 24-72 h.
(§6) Fluorescence Measurements. […] Cells were imaged at room temperature (22-25° C.) in a 95% air/5% CO2-gassed solution of the following composition (in mM): 112 NaCl, 1.25 CaCl2, 1.25 MgSO4, 1-2 glucose, 10 HEPES, 24 NaHCO^3, pH 7.4, with 3 mM KCl (astrocytes) or 5 mM KCl (HEK and T98G) using an upright Olympus FV1000 Confocal Microscope equipped with a 20× water immersion objective (N.A. 1.0) and a 440 nm solid-state laser. Alternatively, cells were imaged with an Olympus IX70 or with an Olympus BX51 microscope equipped with a 40× oil-immersion objective (NA 1.3) or with a 20× water-immersion objective (NA 0.95). […]

[5] = tested on: monocarboxylate transporter (MCT) in astrocytes; experiment: Astrocytic lactate uptake via MCT monitored with the lactate sensor; assay type: cell-based, mouse; details: 1 mM lactate
Text: as §1, §2
(§4) By controlling the exchange of lactate between cells and the interstitial space, MCTs are nodal points of tissue metabolism. MCTs catalyze the stoichiometric translocation of lactate and a proton and their activity can be measured with single-cell resolution by monitoring intracellular pH with a dye such as BCECF. However, 99.9% of protons are bound to proteins, phospholipids and other sites, and are exchanged through many transporters other than the MCT, which makes pH an imperfect proxy for lactate. To compare the performances of the lactate sensor of the present invention and BCECF, we chose astrocytes. When expressed in astrocytes, the lactate sensor of the present invention responded well to extracellular lactate, allowing real-time monitoring of lactate influx and efflux (FIG. 13). […] In contrast, exposure to extracellular lactate produced only a small change in intracellular pH as detected with BCECF (FIG. 15). […] Lactate may also be transported independently of protons through gap junctions (Rouach et al., 2008) and possibly through connexin hemichannels and pannexin channels, fluxes that are invisible to pH measurements and that may now be measured with the present invention.

MCT [6] = experiment: Initial rate of astrocytic lactate uptake measured with the lactate sensor; assay type: cell-based, mice; details: 1 mM lactate, 50 μM blocker, astrocytes
Text: as §1, §2, §4

MCT [7] = experiment: Intracellular lactate in astrocytes after MCT blockage; assay type: cell-based, mice; details: 50 μM
Description: as §1, §2
The diagram in FIG. 14 illustrates how the intracellular concentration of lactate is determined by the dynamic balance between pyruvate production by glycolysis, pyruvate consumption by mitochondria and lactate exchange through MCTs. In cells that are exporting lactate, perturbation of the steady state by addition of a blocker of the MCT is expected to cause lactate accumulation. In cells that are net lactate importers, an MCT-blocker is expected to cause depletion in intracellular lactate. In both cases, the rate of change will be equal to the rate of lactate production or consumption. […] Phloretin is also known to inhibit GLUT glucose transporters, however this should not compromise the analysis of astrocytes, neurons, or the cell lines so far characterized, which maintain resting intracellular glucose at levels well above the Km of hexokinase (Bittner et al., 2010; Takanaga et al., 2008; Fehr et al., 2003). In these cells, glucose consumption remains constant for several minutes in the presence of glucose transporter blockers like phloretin or cytochalasin B (Bittner et al., 2010). Thus, during the first few minutes of phloretin application, the rate of lactate accumulation is not diminished by lack of glucose supply.

[8] = tested on: oxidative phosphorylation in astrocytes; experiment: Rate of lactate production on inhibition of oxidative phosphorylation, measured with the lactate sensor; details: Mus musculus, Astrocyte, read-out: fold increase in the rate of lactate production
Description: as §5, §6

[9] = Fluorescence ratio (mTFP/Venus) response of purified lactate sensor to lactate in vitro; assay type: binding; details: comparison of sensor variants (FIG. 4)
Description: as §3, §2

N#CC(=Cc1ccc(O)cc1)C(=O)O [Variant 4-CIN, α-Cyano-4-hydroxycinnamate]
effect on intracellular lactate [1]: led to an increase in intracellular lactate
block of MCTs (MCT [2]; HEK293 cell, 200 μM, 25 mM glucose, no extracellular lactate): did not block MCTs to a significant extent

OC[C@H]1OC(O)[C@H](O)[C@@H](O)[C@@H]1O (some centres unmarked) [glucose]
change in FRET (specificity) [3]: only lactate induced a significant change in FRET

[N-]=[N+]=[N-].[Na+] [azide, sodium azide]
increase in the rate of lactate production [4]: 26±4 fold

C[C@H](O)C(=O)O [lactate]
initial rate of astrocytic uptake of lactate [5]: 1.6 ± 0.5 µM/s
change in FRET (specificity) [3]: only lactate induced a significant change in FRET

O=C(CCc1ccc(O)cc1)c1c(O)cc(O)cc1O [phloretin]
inhibition of initial rate of astrocytic lactate uptake (MCT [6]): 96±1%
effect on intracellular lactate (MCT [7]): caused the expected increase in intracellular lactate
effect on intracellular lactate (MCT [2]; HEK293 cells, 50 μM): caused the expected increase in intracellular lactate

[N-]=[N+]=[N-] [sodium azide]
fold induction at 5000 µM [8]: 26 ± 4

Variant 7: Most responsive FRET lactate sensor: mTFP, full length L1dR from E. coli, no linkers, Venus; SEQ ID NO 7
change in fluorescence ratio in response to lactate [9]: most responsive variant
